# Legend:
# [1] = molecular target: recombinant human HDAC6 (Homo sapiens (Human), UniProt Q9UBN7); experiment: Enzymatic screening, HDAC6 inhibition (fluorogenic FdL_G substrate); type: biochemical
# Outline: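 Enzyme was preincubated with compound (8 doses, triplicate, 1% DMSO) in 25 mM Tris-HCl pH 8, 130 mM NaCl, 0.05% Tween-20, 10% glycerol, with BSA. A FLUOR DE LYS-Green substrate was then added, and fluorescence was read after developer plus 2 μM TSA.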
# [2] = molecular target: recombinant human HDAC1 (Homo sapiens (Human), UniProt Q13547); experiment: Enzymatic screening, HDAC1 inhibition (fluorogenic FdL_G substrate); type: biochemical
# Outline: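 Recombinant human HDAC1 inhibition was measured fluorometrically using the FLUOR DE LYS-Green (FdL_G) substrate. Compounds at 8 doses (1% DMSO final) in Tris-HCl pH 8 buffer with NaCl, Tween-20 and glycerol were preincubated in triplicate with enzyme and 1 mg/mL BSA, then given substrate. Developer I plus 2 μM TSA was added, and fluorescence read after 25 minutes in the dark.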
# Sequence of recombinant human HDAC6 (Q9UBN7 whole entry): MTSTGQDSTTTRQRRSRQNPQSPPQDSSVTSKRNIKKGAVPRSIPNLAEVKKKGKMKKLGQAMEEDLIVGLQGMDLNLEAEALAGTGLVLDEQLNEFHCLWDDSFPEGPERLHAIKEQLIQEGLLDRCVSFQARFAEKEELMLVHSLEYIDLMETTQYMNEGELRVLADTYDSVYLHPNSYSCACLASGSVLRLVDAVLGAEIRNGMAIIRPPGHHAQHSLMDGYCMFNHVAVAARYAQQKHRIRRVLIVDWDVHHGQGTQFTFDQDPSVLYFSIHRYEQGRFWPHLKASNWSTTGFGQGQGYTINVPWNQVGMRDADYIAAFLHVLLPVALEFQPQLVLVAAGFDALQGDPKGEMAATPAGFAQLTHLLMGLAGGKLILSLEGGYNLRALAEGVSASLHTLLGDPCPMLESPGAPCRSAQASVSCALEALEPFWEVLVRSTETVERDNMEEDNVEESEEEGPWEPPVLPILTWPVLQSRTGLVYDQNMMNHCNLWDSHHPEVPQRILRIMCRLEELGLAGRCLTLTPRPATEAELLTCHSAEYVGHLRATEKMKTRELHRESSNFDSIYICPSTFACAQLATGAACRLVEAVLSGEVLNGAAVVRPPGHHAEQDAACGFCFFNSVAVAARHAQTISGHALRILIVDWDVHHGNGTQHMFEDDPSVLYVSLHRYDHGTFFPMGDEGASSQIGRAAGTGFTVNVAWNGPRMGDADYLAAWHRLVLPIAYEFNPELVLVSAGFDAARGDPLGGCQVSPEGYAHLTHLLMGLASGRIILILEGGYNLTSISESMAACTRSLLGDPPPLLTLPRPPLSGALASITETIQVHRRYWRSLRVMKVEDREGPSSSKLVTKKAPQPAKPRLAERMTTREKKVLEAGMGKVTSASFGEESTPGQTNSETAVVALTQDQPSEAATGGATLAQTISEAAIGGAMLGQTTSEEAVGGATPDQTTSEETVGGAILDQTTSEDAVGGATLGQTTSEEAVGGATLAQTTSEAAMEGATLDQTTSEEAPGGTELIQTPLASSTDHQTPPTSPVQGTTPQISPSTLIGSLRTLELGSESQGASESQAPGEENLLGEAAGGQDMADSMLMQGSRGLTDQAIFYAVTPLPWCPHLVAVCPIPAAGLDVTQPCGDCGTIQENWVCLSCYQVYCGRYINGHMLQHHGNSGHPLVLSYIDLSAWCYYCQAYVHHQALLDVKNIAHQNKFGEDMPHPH
# Sequence of recombinant human HDAC1 (Q13547 whole entry): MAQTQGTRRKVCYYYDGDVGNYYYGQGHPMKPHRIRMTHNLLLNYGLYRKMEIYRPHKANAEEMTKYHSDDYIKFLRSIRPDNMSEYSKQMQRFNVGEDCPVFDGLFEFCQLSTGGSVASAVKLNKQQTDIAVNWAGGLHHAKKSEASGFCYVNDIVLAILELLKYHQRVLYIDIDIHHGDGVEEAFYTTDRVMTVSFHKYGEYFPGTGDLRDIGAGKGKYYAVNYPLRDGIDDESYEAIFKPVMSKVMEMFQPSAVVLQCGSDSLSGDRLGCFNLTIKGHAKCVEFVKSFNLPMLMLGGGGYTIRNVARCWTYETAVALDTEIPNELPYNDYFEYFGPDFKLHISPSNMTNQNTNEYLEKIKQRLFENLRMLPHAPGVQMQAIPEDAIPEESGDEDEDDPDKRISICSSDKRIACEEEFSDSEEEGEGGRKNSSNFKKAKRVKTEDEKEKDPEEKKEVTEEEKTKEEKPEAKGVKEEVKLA
SMILES,IC50 [1],IC50 [2]
"NC(=O)c1cccc(-c2cnn(Cc3ccc(-c4nnc(C(F)F)o4)cc3)c2)c1 [compound 333, 3-[1-[[4-[5-(difluoromethyl)-1,3,4-oxadiazol-2-yl]phenyl]methyl]pyrazol-4-yl]benzamide]",321 nM,> 1e+06 nM
"FC(F)c1nnc(-c2cnc(Cn3nnnc3-c3cccs3)nc2)o1 [compound 299, 2-(difluoromethyl)-5-(2-((5-(thiophen-2-yl)-1H-tetrazol-1-yl)methyl)pyrimidin-5-yl)-1,3,4-oxadiazole]",110 nM,> 200000 nM
"CC(C)(C)OC(=O)N1CCC2(C1)C(=O)Nc1ccc(-c3cn(Cc4ccc(-c5nnc(C(F)F)o5)cc4)nn3)cc12 (centres unmarked) [compound 177, tert-butyl 5-(1-(4-(5-(difluoromethyl)-1,3,4-oxadiazol-2-yl)benzyl)-1H-1,2,3-triazol-4-yl)-2-oxospiro[indoline-3,3′-pyrrolidine]-1′-carboxylate]",89 nM,> 200000 nM
"CC(C)(c1ccncc1)c1nnn(Cc2ccc(-c3nnc(C(F)F)o3)cc2)n1 [compound 219, 2-(difluoromethyl)-5-(4-((5-(2-(pyridin-4-yl)propan-2-yl)-2H-tetrazol-2-yl)methyl)phenyl)-1,3,4-oxadiazole]",156 nM,> 200000 nM
"O=C(Nc1cccc(-c2cn(Cc3ccc(-c4nnc(C(F)F)o4)cc3Cl)nn2)c1)N1CCOCC1 [compound 337, N-[3-[1-[[2-chloro-4-[5-(difluoromethyl)-1,3,4-oxadiazol-2-yl]phenyl]methyl]triazol-4-yl]phenyl]morpholine-4-carboxamide]",45 nM,> 1e+06 nM
"FC(F)c1nnc(-c2ccc(Cn3nnc(-c4cccs4)n3)cc2)o1 [compd. 261, 2-(difluoromethyl)-5-(4-((5-(thiophen-2-yl)-2H-tetrazol-2-yl)methyl)phenyl)-1,3,4-oxadiazole]",181 nM,> 200000 nM
"Nc1cc2cc(-c3cn(Cc4ccc(-c5nnc(C(F)F)o5)cc4F)nn3)ccc2cn1 [compound 405, 6-[1-({4-[5-(difluoromethyl)-1,3,4-oxadiazol-2-yl]-2-fluorophenyl}methyl)-1H-1,2,3-triazol-4-yl]isoquinolin-3-amine]",59 nM,1e+06 nM
"O=C(NCC1CC1)C1CCCN(C(=O)c2ccc(-c3cn(Cc4c(F)cc(-c5nnc(C(F)F)o5)cc4F)nn3)cc2)C1 (centres unmarked) [compound 239, N-(cyclopropylmethyl)-1-(4-(1-(4-(5-(difluoromethyl)-1,3,4-oxadiazol-2-yl)-2,6-difluorobenzyl)-1H-1,2,3-triazol-4-yl)benzoyl)piperidine-3-carboxamide]",215 nM,> 200000 nM
"Cn1c(N)nc2ccc(-c3cn(Cc4ccc(-c5nnc(C(F)F)o5)cc4)nn3)cc21 [compound 166, 6-(1-(4-(5-(difluoromethyl)-1,3,4-oxadiazol-2-yl)benzyl)-1H-1,2,3-triazol-4-yl)-1-methyl-1H-benzo[d]imidazol-2-amine]",78 nM,> 200000 nM
"Cn1c(N)nc2cc(-c3cn(Cc4ccc(-c5nnc(C(F)F)o5)cc4Cl)nn3)ccc21 [compound 344, 5-[1-[[2-chloro-4-[5-(difluoromethyl)-1,3,4-oxadiazol-2-yl]phenyl]methyl]triazol-4-yl]-1-methylbenzimidazol-2-amine]",47 nM,84400 nM
"NC(=O)c1cccc(-c2cnn(Cc3ccc(-c4nnc(C(F)F)o4)cn3)c2)c1 [compound 334, 3-[1-[[5-[5-(difluoromethyl)-1,3,4-oxadiazol-2-yl]pyridin-2-yl]methyl]pyrazol-4-yl]benzamide]",65 nM,> 1e+06 nM
"Nc1ccc(-c2noc(Cc3ccc(-c4nnc(C(F)F)o4)cc3F)n2)cc1 [compd. 419, 4-(5-(4-(5-(difluoromethyl)-1,3,4-oxadiazol-2-yl)-2-fluorobenzyl)-1,2,4-oxadiazol-3-yl)aniline]",64 nM,> 1e+06 nM

# These reach a lower IC50 [1]. Values come first.
IC50 [1],IC50 [2],SMILES
42 nM,> 200000 nM,"O=C(c1cccc(-c2nnn(Cc3c(F)cc(-c4nnc(C(F)F)o4)cc3F)n2)c1)N1CCOCC1 [compound 112, (3-(2-(4-(5-(difluoromethyl)-1,3,4-oxadiazol-2-yl)-2,6-difluorobenzyl)-2H-tetrazol-5-yl)phenyl)(morpholino)methanone]"
31 nM,> 200000 nM,"FC(F)c1nnc(-c2ccc(Cn3cc(-c4cnc5cccnn45)nn3)nc2)o1 [compound 74, 2-(difluoromethyl)-5-(6-((4-(imidazo[1,2-b]pyridazin-3-yl)-1H-1,2,3-triazol-1-yl)methyl)pyridin-3-yl)-1,3,4-oxadiazole]"
28 nM,> 200000 nM,"CC(c1ccc(-c2nnc(C(F)F)o2)cn1)n1cc(-c2cccc(NC(=O)N3CCOCC3)c2)nn1 (centres unmarked) [compound 66, N-(3-(1-(1-(5-(5-(difluoromethyl)-1,3,4-oxadiazol-2-yl)pyridin-2-yl)ethyl)-1H-1,2,3-triazol-4-yl)phenyl)morpholine-4-carboxamide]"
27 nM,> 200000 nM,"Cn1c(N)nc2cc(-c3nnn(Cc4ncc(-c5nnc(C(F)F)o5)cn4)n3)ccc21 [compound 252, 5-(2-((5-(5-(difluoromethyl)-1,3,4-oxadiazol-2-yl)pyrimidin-2-yl)methyl)-2H-tetrazol-5-yl)-1-methyl-1H-benzo[d]imidazol-2-amine]"
26 nM,168000 nM,"Fc1cc(-c2nnc(C(F)F)o2)c(F)cc1Cn1nnc(-c2cccc(-c3nc4c([nH]3)CCNC4)c2)n1 [compound 367, 2-(difluoromethyl)-5-[2,5-difluoro-4-[[5-[3-(4,5,6,7-tetrahydro-1H-imidazo[4,5-c]pyridin-2-yl)phenyl]tetrazol-2-yl]methyl]phenyl]-1,3,4-oxadiazole]"
22 nM,> 1e+06 nM,"Nc1ccc(-c2cn([C@@H](CO)c3ccc(-c4nnc(C(F)F)o4)cc3)nn2)cn1 [compound 314, (2R)-2-[4-(6-aminopyridin-3-yl)triazol-1-yl]-2-[4-[5-(difluoromethyl)-1,3,4-oxadiazol-2-yl]phenyl]ethanol]"
19 nM,> 1e+06 nM,"Cn1c(N)nc2cc(-c3nnn(Cc4cc(F)c(-c5nnc(C(F)F)o5)cc4F)n3)ccc21 [compound 372, 5-[2-[[4-[5-(difluoromethyl)-1,3,4-oxadiazol-2-yl]-2,5-difluorophenyl]methyl]tetrazol-5-yl]-1-methylbenzimidazol-2-amine]"
18 nM,> 1e+06 nM,"Fc1cc(Cn2cnc(-c3ccc(NC4=NCCN4)cc3)c2)ccc1-c1nnc(C(F)F)o1 [compound 360, N-[4-[1-[[4-[5-(difluoromethyl)-1,3,4-oxadiazol-2-yl]-3-fluorophenyl]methyl]imidazol-4-yl]phenyl]-4,5-dihydro-1H-imidazol-2-amine]"
11 nM,> 1e+06 nM,"Fc1c(Cn2cnc(-c3ccc(NC4=NCCN4)cc3)c2)ccc(-c2nnc(C(F)F)o2)c1F [compound 359, N-[4-[1-[[4-[5-(difluoromethyl)-1,3,4-oxadiazol-2-yl]-2,3-difluorophenyl]methyl]imidazol-4-yl]phenyl]-4,5-dihydro-1H-imidazol-2-amine]"
7 nM,> 200000 nM,"FC(F)c1nnc(-c2ccc(Cn3cc(-c4ccc(NC5=NCCN5)cc4)nn3)nc2)o1 [compd. 24, N-(4-(1-((5-(5-(difluoromethyl)-1,3,4-oxadiazol-2-yl)pyridin-2-yl)methyl)-1H-1,2,3-triazol-4-yl)phenyl)-4,5-dihydro-1H-imidazol-2-amine]"

# Source: patent US20230286970A1, “NOVEL OXADIAZOLE-BASED SELECTIVE HDAC6 INHIBITORS” (ITALFARMACO S.P.A., priority 2020, published 2023)
